Experimental data: patent US10092592B2, “Application of cyclic dinucleotide (cGAMP) in anti-tumor field” (FUDAN UNIVERSITY, priority 2014, dated 2018)

Assays:
Assay type in all cases: in vivo
[1] = test system: human gastric carcinoma cell line MNK-45; assay: Subcutaneously transplanted tumor of human gastric carcinoma cell line MNK-45 in nude mice; details: MNK-45 in BALB/c nude mice; for Average Tumor Weight: mean ± SD, n = 8
Method: (§1) Anti-tumor effect of cGAMP (cyclized GMP-AMP) was detected by employing a tumor-bearing mouse model to test inhibition effect of cGAMP on subcutaneously transplanted tumor.
(§2) Animals: Nude mouse BALB/c, male, with a body weight of 16-18 g, 4-6 weeks old, SPF grade, purchased from SLAC LABORATORY ANIMAL [certification number: SCXK (Shanghai) 2007-0005].
(§3) Dose: cGAMP was injected into abdominal cavities of mice, and two dose groups were set as followed: 10 mg/kg and 40 mg/kg.
(§4) Experimental Controls: • Negative control: brine solution • Positive control: 5-fluorouracil (5-FU), with a dose of 20 mg/kg
(§5) Administration Method: • Administration route: administration by intraperitoneal injection • Administration frequency: once a day for 14 days • Number of each group of animals: 8
(§6) Tumor cell lines: human gastric carcinoma cell line MNK-45, human lung adenocarcinoma cell line A549, human colorectal carcinoma cell line Lovo, human hepatocellular carcinoma cell line SMMC-7721, human prostatic carcinoma cell line PC-3 and human pancreatic carcinoma cell SW1990, purchased from the Cell Bank of the Chinese Academy of Sciences, are included in the above mentioned tumor cell lines.
(§7) 1. establishing a tumor-bearing mouse model and allowing intervention, including: cultivating and passaging cells, collecting cells in logarithmic phase, and making into a cell suspension with a concentration of 1.0×10^7/ml, injecting 0.2 ml of the cell suspension into the nude mice through their right arm armpits to make them get a tumor, and randomly dividing the nude mice into four groups: a negative control which is a group injected with brine through intraperitoneal injection, a 5-FU group which is a group injected with 5-FU through intraperitoneal injection, a cGMP-AMP low-dose group which is a group injected with 10 mg/kg of cGMP-AMP through intraperitoneal injection, and a cGMP-AMP high-dose group which is a group injected with 40 mg/kg of cGMP-AMP through intraperitoneal injection, administrating once a day for 14 days, then killing the nude mice and weighing the wts. Of tumor and calculating a tumor inhibition rate, which is calculated by the following equation: tumor inhibition rate[1−average tumor weight of experimental groups/average tumor weight of A group]×100%, wherein the experimental groups are B, C and D groups; separately establishing 6 subcutaneously implanted tumor models: human gastric carcinoma cell line MNK-45, human lung adenocarcinoma cell line A549, human colorectal carcinoma cell line Lovo, human hepatocellular carcinoma cell line SMMC-7721, human prostatic carcinoma cell line PC-3 and human pancreatic carcinoma cell SW1990, and observing the effect of cGAMP; and
(§8) 2. allowing statistical analysis: representing the data by x±s, processing the data with a software SPSS-10.0, analyzing by one-way ANOVA, comparing the significance of tumor weight differences among the groups, wherein the level of significance is a=0.05.

[2] = test system: human lung adenocarcinoma cell line A549; assay: Subcutaneously transplanted tumor of human lung adenocarcinoma cell line A549 in nude mice; details: A549 in BALB/c nude mice; for Average Tumor Weight: mean ± SD, n = 8
Method: as §1, §2, §3, §4, §5, §6, §7, §8

[3] = test system: human colorectal carcinoma cell line Lovo; assay: Subcutaneously transplanted tumor of human colorectal carcinoma cell line Lovo in nude mice; details: Lovo in BALB/c nude mice; for Average Tumor Weight: mean ± SD, n = 8
Method: as §1, §2, §3, §4, §5, §6, §7, §8

[4] = test system: human hepatocellular carcinoma cell line SMMC-7721; assay: Subcutaneously transplanted tumor of human hepatocellular carcinoma cell line SMMC-7721 in nude mice; details: SMMC-7721 in BALB/c nude mice; for Average Tumor Weight: mean ± SD, n = 8
Method: as §1, §2, §3, §4, §5, §6, §7, §8

[5] = test system: human prostatic carcinoma cell line PC-3; assay: Subcutaneously transplanted tumor of human prostatic carcinoma cell line PC-3 in nude mice; details: PC-3 in BALB/c nude mice; for Average Tumor Weight: mean ± SD, n = 8
Method: as §1, §2, §3, §4, §5, §6, §7, §8

[6] = test system: human pancreatic carcinoma cell SW1990; assay: Subcutaneously transplanted tumor of human pancreatic carcinoma cell SW1990 in nude mice; details: SW1990 in BALB/c nude mice; for Average Tumor Weight: mean ± SD, n = 8
Method: as §1, §2, §3, §4, §5, §6, §7, §8

ICR mice = assay: Acute toxicity, single tail intravenous injection
Method: The materials are 20 of ICR mice, which are purchased from SLAC LABORATORY ANIMAL [certification number: SCXK (Shanghai) 2007-0005], are half male and half female, have body weights within 18-22 g, are fed with granular feedstuff and are free to find food and drink.
The method includes: subjecting the ICR mice to single tail intravenous injection of 10 ml/kg cGMAP based on their body weights, namely 2 g/kg, observing toxic reactions and deaths after administration within 14 days.

[7] = 20 mg/kg intraperitoneal once a day for 14 days
[8] = high dose 40 mg/kg intraperitoneal once a day for 14 days
[9] = low dose 10 mg/kg intraperitoneal once a day for 14 days
[10] = single tail intravenous injection 2 g/kg (10 ml/kg)

**Q.** How did the “Average Tumor Inhibition Rate” value [1, 7] turn out when O=c1[nH]cc(F)c(=O)[nH]1 [5-FU, 5-fluorouracil, reference compound] was run?
**A.** 76.9%

**Q.** What about the “Average Tumor Weight” value [1, 7] of the same molecule?
**A.** 0.619 ± 0.214 (g)

**Q.** And the “Average Tumor Inhibition Rate” value [2, 7]?
**A.** 70.3%

**Q.** What about the “Average Tumor Weight” value [2, 7] of the same molecule?
**A.** 0.843 ± 0.210 (g)

**Q.** What about the “Average Tumor Inhibition Rate” value [3, 7] of the same molecule?
**A.** 71.7%

**Q.** And the “Average Tumor Weight” value [3, 7]?
**A.** 0.769 ± 0.101 (g)

**Q.** And the “Average Tumor Inhibition Rate” value [4, 7]?
**A.** 72.7%

**Q.** What about the “Average Tumor Weight” value [4, 7] of the same molecule?
**A.** 0.853 ± 0.082 (g)

**Q.** What about the “Average Tumor Inhibition Rate” value [5, 7] of the same molecule?
**A.** 76.3%

**Q.** And the “Average Tumor Weight” value [5, 7]?
**A.** 0.728 ± 0.102 (g)

**Q.** What about the “Average Tumor Inhibition Rate” value [6, 7] of the same molecule?
**A.** 76.8%

**Q.** What about the “Average Tumor Weight” value [6, 7] of the same molecule?
**A.** 0.685 ± 0.086 (g)

**Q.** Which results are given for Nc1nc2c(ncn2[C@@H]2O[C@@H]3COP(=O)(O)O[C@H]4[C@@H](O)[C@H](n5cnc6c(N)ncnc65)O[C@@H]4COP(=O)(O)O[C@@H]2[C@@H]3O)c(=O)[nH]1 [cGAMP, cyclized GMP-AMP]?
**A.** Average Tumor Inhibition Rate [1, 8]: 61.3%; Average Tumor Weight [1, 8]: 1.037 ± 0.198 (g); Average Tumor Inhibition Rate [1, 9]: 38.7%; Average Tumor Weight [1, 9]: 1.641 ± 0.175 (g); Average Tumor Inhibition Rate [2, 8]: 59.4%; Average Tumor Weight [2, 8]: 1.151 ± 0.121 (g); Average Tumor Inhibition Rate [2, 9]: 44.9%; Average Tumor Weight [2, 9]: 1.562 ± 0.102 (g); Average Tumor Inhibition Rate [3, 8]: 55.7%; Average Tumor Weight [3, 8]: 1.204 ± 0.122 (g); Average Tumor Inhibition Rate [3, 9]: 36.9%; Average Tumor Weight [3, 9]: 1.714 ± 0.137 g; Average Tumor Inhibition Rate [4, 8]: 65.2%; Average Tumor Weight [4, 8]: 1.089 ± 0.130 g; Average Tumor Inhibition Rate [4, 9]: 38.7%; Average Tumor Weight [4, 9]: 1.916 ± 0.174 (g); Average Tumor Inhibition Rate [5, 8]: 69.6%; Average Tumor Weight [5, 8]: 0.932 ± 0.148 g; Average Tumor Inhibition Rate [5, 9]: 52.2%; Average Tumor Weight [5, 9]: 1.467 ± 0.201 (g); Average Tumor Inhibition Rate [6, 8]: 67.4%; Average Tumor Weight [6, 8]: 0.964 ± 0.109 g; Average Tumor Inhibition Rate [6, 9]: 44.8%; Average Tumor Weight [6, 9]: 1.631 ± 0.133 (g); deaths within 14 days after administration (ICR mice; [10]): no death was observed; pathological changes in organs by naked eyes on dissection, 15th day (ICR mice; [10]): no obvious pathological changes in organs were observed; toxic reactions after the single tail intravenous injection (ICR mice; [10]): normal physiological activity was observed; maximum tolerated dose of intravenous injection MTD (ICR mice; single tail intravenous injection, observed 14 days): not less than 2 g/kg
